Test results from patent US11154071B2, “Sweetener iso-mogroside V” (Glvaudan SA, priority 2007, dated 2021).

Experiments:
Type in all cases: in vivo
[1] = test system: sweet sensitive panelists; test: Sweetness enhancement of iso-mogroside V at near threshold concentration in 7% sucrose solution, sensory panel; conditions: 10 ppm iso-mogroside V in 7% sucrose solution
Method: The sweetness enhancement properties of iso-mogroside V was determined using a sample having a concentration of 10 ppm iso-mogroside V, which is near the sweetness detection threshold, in 7% sucrose solution.
The iso-mogroside V sample was directly compared to samples of 7%, 8% or 9% sucrose, and panelists were instructed to compare the sweetness intensity of the samples.
The comparisons were carried out by a panel of 6 sweet sensitive panelists. All samples were presented to panelists in 15 ml aliquots at ambient temperature. Panelists compared the iso-mogroside V sample to each of the sucrose samples.

[2] = test system: sweet sensitive panelists; test: Comparison of the sweetness of mogroside V and iso-mogroside V in water, blind samples, sensory panel; conditions: panel of 4
Method: The intensity of sweet taste of iso-mogroside V when compared to mogroside V was determined in water using near-sweetness detection threshold concentrations. The direct comparison was carried out by a panel of 4 sweet sensitive panelists. Blind samples (identity unidentifiable by panelists) were randomly presented to panelists in 15 ml aliquots at ambient temperature. Sensory evaluation started with the lower sample concentration (10 ppm).

[3] = Preliminary experiments on flavour enhancing effect on sweeteners
[4] = test system: sweet sensitive panelists; test: Determination of the sweetness threshold of iso-mogroside V: isointensity to sucrose solutions, paired comparison
Method: […] Samples were paired and tasted left to right with rinsing of the mouth (water) in-between. 20 ppm iso-mogroside V was evaluated as described but with 4 sweet sensitive panelists and 0.5, 1.0 and 1.5% sucrose.

C[C@H](CC[C@@H](O[C@@H]1O[C@H](CO[C@@H]2O[C@H](CO)[C@@H](O)[C@H](O)[C@H]2O)[C@@H](O)[C@H](O)[C@H]1O[C@@H]1O[C@H](CO)[C@@H](O)[C@H](O)[C@H]1O)C(C)(C)O)[C@H]1CC[C@@]2(C)[C@@H]3CC=C4[C@@H](CC[C@H](O[C@@H]5O[C@H](CO)[C@@H](O[C@@H]6O[C@H](CO)[C@@H](O)[C@H](O)[C@H]6O)[C@H](O)[C@H]5O)C4(C)C)[C@]3(C)[C@H](O)C[C@]12C [iso-mogroside V, 3-[(4-O-β-D-glucopyranosyl-β-D-glucopyranosyl)oxy]-mogrol-24-O-β-D-glucopyranosyl-(1→2)-O-[β-D-glucopyranosyl-(1→6)]-β-D-glucopyranoside]
panelists who found the sample as sweet or sweeter as 8% sucrose [1]: 5 of 6
panelists who found the sample sweeter than 7% but less sweet than 8% sucrose [1]: 1 of 6
sweetness enhancement effect (equal to sucrose) ([1]; after subtracting own sweetness of 0.5% sucrose): ≥ 0.5 % sucrose
sweetness of iso-mogroside V sample (equal to sucrose) ([1]; compared to 7%, 8% or 9% sucrose, panel of 6): ≥ 8 % sucrose
Taste of iso-mogroside V samples compared to mogroside V ([2]; 10 ppm in water): sweeter
panelists who indicated iso-mogroside V is sweeter than mogroside V ([2]; 10 ppm in water): two
Taste of iso-mogroside V samples compared to mogroside V ([2]; 20 ppm in water): sweeter
panelists who indicated iso-mogroside V is sweeter than mogroside V ([2]; 20 ppm in water): 4 panelists
flavour enhancing effect on sweeteners compared to its known isomer (mogroside V) [3]: particularly high flavour enhancing effect
Taste of iso-mogroside V samples compared to sucrose ([4]; 10 ppm in water vs 0% sucrose (water), 5 panelists): sweeter
Taste of iso-mogroside V samples compared to sucrose ([4]; 10 ppm in water vs 0.5% sucrose, 5 panelists): isosweet
Taste of iso-mogroside V samples compared to sucrose ([4]; 10 ppm in water vs 1.0% sucrose, 5 panelists): less sweet
Taste of iso-mogroside V samples compared to sucrose ([4]; 20 ppm in water vs 0.5% sucrose, 4 panelists): sweeter
Taste of iso-mogroside V samples compared to sucrose ([4]; 20 ppm in water vs 1% sucrose, 4 panelists): isosweet
Taste of iso-mogroside V samples compared to sucrose ([4]; 20 ppm in water vs 1.5% sucrose, 4 panelists): less sweet
equivalent sweetness intensity at the sweetness detection threshold ([4]; about 0.2 ppm in water as stated): about 0.5 % sucrose
sweetness relative to sucrose ([4]; from 10 ppm isosweet to 0.5% sucrose): about 500 times
